Results on three compounds are retold here after patent US20250382298A1, “NITROGEN-CONTAINING COMPOUND AND USE THEREOF” (SUZHOU GENHOUSE BIO CO., LTD., priority 2022, published 2025).

Each structure is given as a SMILES string.

Series [1] deals with HT-29 cells. The series can be described thus: Detection of cell proliferation activity by CCK8 method (HT-29). Format: cell-based, human. The following applies: Homo sapiens, CCK8, 96 h. The gist of the method:
(§1)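 Cells seeded at 1500/well (BT-549, 1640 medium) or 2000/well (HT-29, HCT-116, McCoy's 5A), treated next day with 9-point 1:5 dilutions from 10 μM final, triplicate, for 96 h. CCK8 read at 450 nm after 2 h at 37 °C; inhibition versus DMSO, IC50 by non-linear regression.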

Series [2] relates to HCT-116 cells. The series can be described thus: Detection of cell proliferation activity by CCK8 method (HCT-116). Format: cell-based. The following applies: Homo sapiens, CCK8, 96 h. The gist of the method:
as §1

In series [3] the test system is BT-549 cells. Nature of the series: Detection of cell proliferation activity by CCK8 method (BT-549). The following applies: Homo sapiens, CCK8, 96 h. The format is cell-based. The gist of the method: as §1
Series [4] relates to OVCAR3 cells. The series can be described thus: Detection of OVCAR3 cell proliferation activity by CTG method. The following applies: Homo sapiens, OVCAR-3, 168 h, CellTiter-Glo, 7 days. The format is cell-based. The method, boiled down:
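OVCAR3 cells (2000/well) were exposed for 7 days to compound at 10 μM to 0.026 nM, 5-fold steps, in duplicate. Viability was read as CellTiter-Glo luminescence. A plate read on the day of compound addition served as the Max value for IC50 derivation.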

Series [5] in a line: Pharmacokinetic test in rats. The format is in vivo. The conditions noted are these: SD rats, PO @5mpk; for AUC / Cmax / half-life: rat, plasma, 5 mg/kg; for half-life: read-out: t½ (converted). On the procedure: In this example, the pharmacokinetic behavior of the compounds after intravenous injection (IV) and intragastric (PO) administration in SD rats was tested.
On the day of administration, rats were weighed for actual body weight and the administration volume was calculated. Each compound was tested in two groups with 3 rats in each group; one group was subjected to administration by single intravenous injection, and the other group was subjected to single intragastric administration. Whole blood samples were collected via the jugular vein at prescribed time points (0.25 h, 0.5 h, 1 h, 2 h, 4 h, 8 h, and 24 h after administration). After blood sample collection, the samples were immediately transferred to labeled commercial sample tubes containing K2-EDTA (0.85-1.15 mg), followed by centrifugation (3200×g, 4° C., 10 min) and plasma collection. The plasma was transferred to a pre-cooled centrifuge tube, frozen in dry ice, and then stored in an ultra-low temperature freezer at −60° C. or lower until the LC-MS/MS analysis.
Plasma concentrations were determined by the LC-MS/MS method. Plasma drug concentration data for the compounds were processed using a non-compartmental model in the WinNonlin Version 6.3 (Pharsight, Mountain View, CA) pharmacokinetic software. The relevant pharmacokinetic parameters were calculated by a linear-log trapezoidal method.

Series [6] concerns HCT-116 cells. Nature of the series: Mitotic index analysis, pH3 expression in HCT-116 cells. The following applies: Homo sapiens, 24 h treatment. Format: cell-based. The gist of the method:
(§2)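 HCT-116 or HT-29 cells treated 24 h with 9-point 3-fold dilutions from 10 μM, then fixed and immunostained for phospho-histone H3 with DRAQ5 counterstain. Near-infrared fluorescence read at 700/800 nm; pH3 expressed as % of DMSO control and EC50 fitted.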

Series [7] has as its system HT-29 cells. Nature of the series: Mitotic index analysis, pH3 expression in HT-29 cells. Format: cell-based, human. The conditions noted are these: Homo sapiens, 24 h treatment. The method, boiled down: as §2
Series [8] addresses KIF18A (Homo sapiens (Human), UniProt Q8NI77). Nature of the series: KIF18A enzymatic activity inhibition, ADP-Glo kit. The conditions noted are these: 4 nM KIF18A, 30 μM ATP. The format is biochemical. The method, then:
In this experiment, an ADP-Glo kit was used to detect the inhibitory activity of the compounds against KIF18A. Each compound was prepared into a 10 mM stock solution with DMSO, which was then diluted at 1:5 to obtain 9 gradients with the initial final concentration set at 10 μM. Meanwhile, a control group and a blank group were also set up. The reaction buffer consisted of 15 mM Tris (pH 7.5), 10 mM MgCl2, and 0.01% Pluronic F-68. 4 nM KIF18A (1467) and the test compound were added to a 384-well plate and incubated at 37° C. for 20 mm. Then, 30 μM ATP was added to initiate the enzymatic reaction, and the plate was incubated at room temperature for 15 min. Finally, the ADP-Glo reagent was added to detect the luminescence intensity, where the luminescence intensity is directly proportional to the ADP content. Inhibition rate (%)=[…]. Sample signal is the value of the compound group, and DMSO signal is the value of the DMSO control group. Then, the inhibition rate at each concentration was calculated, and the IC50 was determined by fitting using the GraphPadPrism 7.0 software.

For series [9], the system named is OVCAR3 cells. The series can be described thus: Detection of cell proliferation activity by CCK8 method (OVCAR3). The format is cell-based. The conditions noted are these: Homo sapiens, OVCAR-3, CCK8, 96 h. The method, boiled down:
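OVCAR3 tumor cells in log-phase growth were trypsinized, counted and plated at 180 μL per well in 96-well plates, with PBS in the outer wells. The following day, compounds were added in 9 concentrations (1:5 dilutions starting at 10 μM final) in triplicate alongside DMSO controls. After 96 h, medium was swapped for 100 μL medium containing 10% CCK8. Plates were incubated 2 h at 37° C and read at 450 nm. Background-corrected inhibition relative to DMSO was fitted by non-linear regression in GraphPad Prism 7.0 to obtain IC50.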

Sequence of KIF18A (Q8NI77 1-467): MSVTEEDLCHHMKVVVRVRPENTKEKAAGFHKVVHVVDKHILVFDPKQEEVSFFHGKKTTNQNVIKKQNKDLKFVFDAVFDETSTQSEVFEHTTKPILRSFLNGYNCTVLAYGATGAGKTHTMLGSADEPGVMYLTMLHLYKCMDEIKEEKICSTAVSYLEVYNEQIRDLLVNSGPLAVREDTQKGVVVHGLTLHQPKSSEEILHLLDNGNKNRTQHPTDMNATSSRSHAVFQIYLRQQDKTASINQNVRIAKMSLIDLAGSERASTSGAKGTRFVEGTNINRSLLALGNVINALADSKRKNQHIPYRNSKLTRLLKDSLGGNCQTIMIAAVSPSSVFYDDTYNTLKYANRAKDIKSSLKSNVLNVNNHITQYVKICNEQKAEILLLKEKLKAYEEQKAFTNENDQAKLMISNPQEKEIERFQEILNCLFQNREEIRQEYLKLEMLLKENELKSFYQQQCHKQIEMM

As to `O=C(Nc1cn2ccnc2c(N2CCOCC2)n1)c1ccc(NS(=O)(=O)CCO)cc1N1CCC2(CC1)CC2` [Compound 11], the IC50 in [1] is 146 nM; in series [2], more than 10000 nM; in series [3] it was 109 nM; in series [4], 36 nM; in series [8], 15.2 nM. Moreover, the F in series [5] turned out to be 25%. The same compound returned an AUC in [5] of 0.604 µM·h. In addition, the peak level in series [5] (Cmax) was 217 nM. In series [5], the half-life is 2.4 h. Further, the results for the EC50 in series [6] and in series [7] were more than 10000 nM and 139 nM, respectively.
Take `O=C(Nc1cn2ccnc2c(N2CCCCC2)n1)c1ccc(NS(=O)(=O)CCO)cc1N1CCC2(CC1)CC2` [Compound 12]: the IC50 in series [1] is 73 nM; in series [2] it was more than 10000 nM; in series [3], 34 nM; in [4], 15 nM; in [8], 10.2 nM. The compound also came in with a F in series [5] of 18.3%. Besides, the AUC in [5] turned out to be 2.41 µM·h. The peak level in series [5] (Cmax) was 526 nM. Besides, the half-life in [5] was 2.6 h. Besides, the EC50 in [6] is more than 10000 nM; in [7], 51 nM.
Regarding `O=C(Nc1cn2ccnc2c(N2CC3(CCC3)C2)n1)c1ccc(NS(=O)(=O)CCO)cc1N1CCC2(CC1)CC2` [Compound 29], the IC50 is 335 nM in [1]; more than 10000 nM in series [2]; 1040 nM in series [3]; 206 nM in series [9]; 220 nM in [4]; 63.4 nM in series [8]. In addition, the EC50 in series [6] is more than 10000 nM; in [7], 108 nM.
